These results are taken from patent US20240166626A1, “Compounds and Methods for Preventing, Treating, or Ameliorating Airway Disease” (THOMAS JEFFERSON UNIVERSITY, priority 2021, published 2024).

In this test the target is CXCR4 (Homo sapiens, UniProt P61073). The experiment in a line: BRET analysis of β-arrestin2 interaction with CXCR4 in HEK 293 cells. The format is cell-based. The conditions noted are these: 10 μM DFPQ, FIG. 2C. The procedure:
FIGS. 2A-2C: […] Cells were read every 2 min post agonist addition. […]® ADRB2 cells (DiscoveRx) were maintained with the AssayCompleteTM Cell Culture kit (DiscoveRx catalog #92-[…]). […] HEK 293 cells stably overexpressing β2AR included 250 μg/ml G418. Cells were incubated at 37° C. in a humidified incubator with 5% CO2. […] Cells were read every three minutes for 18 minutes on a PolarStar Optima plate reader (BMG) to establish peak signal. […] Plates were incubated in the dark at room temperature for one hour. Luminescence was determined at room temperature (23-25° C.) on a PolarStar Optima plate reader (BMG). […] Screening data analysis and IC50 determination. […] Relative assay bias was calculated from the ratio of normalized cAMP and arrestin recruitment responses. […] BRET was measured using a Tecan Infinite F500 microplate reader. […] Bound [35 S]GTPγS was collected by rapid filtration on GF/B filters, washed 4 times with 4 ml of cold GTPγS wash buffer and analyzed by liquid scintillation counting. […] Immunoprecipitated proteins were separated by SDS-PAGE and analyzed by western blot using a β2AR C-terminal tail or phospho-specific antibody. […] Band intensity was measured by densitometry using ImageJ. […] Absorbance was then measured on a plate reader at 405 nm. […] Lungs were monitored for appropriate inflation. […] Images were analyzed post hoc using the ImageJ software. […] Cell-free area was quantitated using ImageJ. […]
On the technique in general: Bioluminescence resonance energy transfer reports proximity on the nanometre scale.

Sequence of CXCR4 (P61073 whole entry, species assumed): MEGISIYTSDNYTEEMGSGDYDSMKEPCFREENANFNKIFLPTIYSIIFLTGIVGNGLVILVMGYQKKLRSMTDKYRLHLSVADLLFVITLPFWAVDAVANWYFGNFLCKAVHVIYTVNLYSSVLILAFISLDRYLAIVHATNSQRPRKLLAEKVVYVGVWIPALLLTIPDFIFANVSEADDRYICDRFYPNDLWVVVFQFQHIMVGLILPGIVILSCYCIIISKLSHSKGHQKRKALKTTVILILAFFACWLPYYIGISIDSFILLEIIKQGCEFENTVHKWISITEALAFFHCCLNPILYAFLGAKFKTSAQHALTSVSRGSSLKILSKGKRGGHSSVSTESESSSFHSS

`Fc1ccc(Nc2nc(NC3CCCCC3)c3ccccc3n2)cc1F` [DFPQ, N^4-cyclohexyl-N^2-(3,4-difluorophenyl)quinazoline-2,4-diamine]: the “β-arrestin2 interaction with CXCR4” value was “no effect”.
